Tests used:
[1] = target: T1, full length (1-55) HIV-1 NCp7 (Human immunodeficiency virus type 1 group M subtype B, UniProt P12493); experiment: Electromobility Shift Assay (EMSA), competition for ssDNA binding; conditions: NCp7 300 nM, M13mp18 ssDNA; positive = >25% inhibition at 100µM
T1 construct: recombinant full length (1-55) HIV-1 NCp7 proteins; made in house
Outline: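 Recombinant NL4-3 NCp7 (300 nM in the pre-mix) was combined with compound in 20 mM Tris-HCl pH 7.4, 2 mM MgCl2, 100 mM NaCl, 1 mM DTT, then M13mp18 ssDNA was added for 25 min at 37 °C. Complexes were run on 1% agarose/0.5x TBE and stained with SybrGold. IC50 is the concentration at which bound ssDNA migrated 50% of the bound–unbound distance (triplicate).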

[2] = system: HIV-1 reference strain NL4-3; experiment: MonoCycle assay (TZM-bl cells); format: cell-based
Outline: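 TZM-bl cells (20,000/well) were infected with NL4-3 in the presence of five-fold serial inhibitor dilutions. After 48 h, cells were lysed and luciferase luminescence (RLU) was counted. IC50 was derived from the RLU data.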

[3] = system: HIV-1 reference strain NL4-3; experiment: BiCycle assay (MT-2 then TZM-bl cells); format: cell-based
Outline: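 MT-2 cells were infected with NL4-3 in the presence of five-fold compound dilutions. After 72 h, the supernatant was passed to TZM-bl cells. Two days later, luciferase luminescence was read and IC50 calculated, giving a readout that spans the whole replication cycle.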

[4] = system: HeLa cells; experiment: HeLa Proliferation assay (CellTiter Glo); format: cell-based; conditions: 72 hours
Outline: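 Viability measured with CellTiter Glo after 72 h compound exposure (37 °C, 5% CO2, humidified) of HeLa cells seeded at 2000 per well in 10% FBS DMEM without phenol red and allowed 4 h recovery.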

[5] = Human immunodeficiency virus 1, NL43, TZM-bl, 48 h, read-out: Mono Cycle IC50 nM
[6] = Human immunodeficiency virus 1, NL43, TZM-bl, read-out: BiCycle IC50 nM
[7] = Human immunodeficiency virus 1, NL43, TZM-bl cells, NL4-3, 48 hours, read-out: Mono Cycle IC50
[8] = Human immunodeficiency virus 1, NL43, MT-2 cells 72 hours then TZM-bl cells two days, NL4-3, read-out: BiCycle IC50

## C[C@H](NC(=O)c1nc(-c2ccc(C(=O)OCc3ccccc3)cn2)nc(O)c1O)C1CCCCC1 [Compound 70, benzyl (S)-6-(4-((1-cyclohexylethyl)carbamoyl)-5,6-dihydroxypyrimidin-2-yl)nicotinate]
[1]
  EMSA screening results: Positive (A compound showing >25% inhibition when tested at 100µM concentration is considered as "positive")
[2]; [5]
  IC50: > 50000 nM
[3]; [6]
  IC50: 190 nM
[4]
  Proliferation assay HELA TD50: 4.1006 µM

## C[C@H](NC(=O)c1nc(-c2cc(C(=O)OCc3ccccc3)ccn2)nc(O)c1O)C1CCCCC1 [Compound 71, benzyl (S)-2-(4-((1-cyclohexylethyl)carbamoyl)-5,6-dihydroxypyrimidin-2-yl)isonicotinate]
[1]
  EMSA screening results: Positive (A compound showing >25% inhibition when tested at 100µM concentration is considered as "positive")
[2]; [5]
  IC50: > 50000 nM
[3]; [6]
  IC50: 559 nM
[4]
  Proliferation assay HELA TD50: 12.825 µM

## C[C@H](NC(=O)c1nc(-c2cc3ccccc3cn2)nc(O)c1O)C1CCCCC1 [Compound 72, (S)-N-(1-cyclohexylethyl)-5,6-dihydroxy-2-(isoquinolin-3-yl)pyrimidine-4-carboxamide]
[1]
  EMSA screening results: Positive (A compound showing >25% inhibition when tested at 100µM concentration is considered as "positive")
[2]; [5]
  IC50: 13400 nM
[3]; [6]
  IC50: 382 nM
[4]
  Proliferation assay HELA TD50: 3.4875 µM

## Cc1cc(-c2nc(O)c(O)c(C(=O)N[C@H](C)C3CCCCC3)n2)nc2ccccc12 [Compound 73, (R)-N-(1-cyclohexylethyl)-5,6-dihydroxy-2-(4-methylquinolin-2-yl)pyrimidine-4-carboxamide]
[1]
  EMSA screening results: Positive (A compound showing >25% inhibition when tested at 100µM concentration is considered as "positive")
[2]; [7]
  IC50: > 50000 nM
[3]; [8]
  IC50: 358 nM
[4]
  Proliferation assay HELA TD50: 5.3719 µM

## C[C@@H](NC(=O)c1nc(-c2cc(C(=O)NCc3ccccc3)ccn2)nc(O)c1O)C1CCCCC1 [Compound 74, (R)-2-(4-(benzylcarbamoyl)pyridin-2-yl)-N-(1-cyclohexylethyl)-5,6-dihydroxypyrimidine-4-carboxamide]
[1]
  EMSA screening results: Positive (A compound showing >25% inhibition when tested at 100µM concentration is considered as "positive")
[2]; [7]
  IC50: > 50000 nM
[3]; [8]
  IC50: 299 nM
[4]
  Proliferation assay HELA TD50: 3.6728 µM

## C[C@H](NC(=O)c1nc(-c2ccc3ccccc3n2)nc(O)c1O)C1CCCCC1 [Compound 75, (S)-N-(1-cyclohexylethyl)-5,6-dihydroxy-2-(quinolin-2-yl)pyrimidine-4-carboxamide]
[1]
  EMSA screening results: Positive (A compound showing >25% inhibition when tested at 100µM concentration is considered as "positive")
[2]; [5]
  IC50: > 50000 nM
[3]; [6]
  IC50: 752 nM
[4]
  Proliferation assay HELA TD50: 7.5355 µM

## Cc1ccnc(-c2nc(O)c(O)c(C(=O)NC3(C4CCCCC4)CC3)n2)c1 [Compound 84, N-(1-cyclohexylcyclopropyl)-5,6-dihydroxy-2-(4-methylpyridin-2-yl)pyrimidine-4-carboxamide]
[1]
  EMSA screening results: Positive (A compound showing >25% inhibition when tested at 100µM concentration is considered as "positive")
[2]; [7]
  IC50: 21200 nM
[3]; [8]
  IC50: 1880 nM
[4]
  Proliferation assay HELA TD50: 1.9245 µM

## CC(NC(=O)c1nc(-c2nccc3ccccc23)nc(O)c1O)C1CCC(F)(F)CC1 (centres unmarked) [Compound 90, N-(1-(4,4-difluorocyclohexyl)ethyl)-5,6-dihydroxy-2-(isoquinolin-1-yl)pyrimidine-4-carboxamide]
[1]
  EMSA screening results: Positive (A compound showing >25% inhibition when tested at 100µM concentration is considered as "positive")
[2]; [7]
  IC50: > 50000 nM
[3]; [8]
  IC50: 1790 nM
[4]
  Proliferation assay HELA TD50: 6.4522 µM
